Assay results published in US8399444B2, “Bicyclic imidazole as DP1 receptor antagonists” (GlaxoSmithKline Intellectual Property Development Ltd., priority 2008, dated 2013).
Where a name gives a salt, the structure may show the parent alone.

Columns and labels:
allergic rhinitis model = conditions: oral administration, guinea pig; cited from earlier work
asthma model = conditions: guinea pig; cited from earlier work
Prostanoid DP1 receptor = molecular target: T1, Prostanoid DP1 receptor (Homo sapiens, UniProt Q13258); assay: Measurement of cAMP using TR-FRET LANCE assay: Prostanoid DP1; format: cell-based; conditions: CHO cells expressing DP1 receptor, antagonism of PGD2 (EC80) cAMP response; read-out: pKi value (converted)
T1 construct: expressed in transfected cells; host or cells: CHO K1
T1 sequence (Q13258 1-359): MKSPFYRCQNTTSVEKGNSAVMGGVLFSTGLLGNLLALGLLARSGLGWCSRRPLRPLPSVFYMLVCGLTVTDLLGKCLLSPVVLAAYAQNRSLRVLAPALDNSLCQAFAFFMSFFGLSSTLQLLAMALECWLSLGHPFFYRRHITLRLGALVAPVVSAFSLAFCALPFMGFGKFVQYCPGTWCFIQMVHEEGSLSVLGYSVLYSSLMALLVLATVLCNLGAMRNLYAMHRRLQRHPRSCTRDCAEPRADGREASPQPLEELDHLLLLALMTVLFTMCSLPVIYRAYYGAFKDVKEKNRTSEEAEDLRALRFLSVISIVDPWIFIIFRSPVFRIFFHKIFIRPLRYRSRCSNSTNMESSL
Experimental: CHO K1 cells, stably expressing the Prostanoid DP1 receptor, were maintained in culture in DMEM/F12, supplemented with 5% FBS, 2 mM L-glutamine, 400 μg/mL hygromycin B in 95%: 5% air: CO2 at 37° C. Following harvest from culture, cells were centrifuged at 250 g at 4° C. for 10 minutes and re-suspended in ice cold dialysed FCS. Once the cells were in mono-suspension they were slowly mixed with an equal volume of ice cold 80% dialysed FCS: 20% DMSO (pre-mixed and chilled several hours earlier). The cells were then aliquoted into 1 mL tubes within a 96 well block (pre-cooled to 4° C.). Once sealed, the tubes were frozen in a controlled rate freezer. The frozen cells were then transferred to a −140° C. freezer for long term storage.
Measurement of cAMP Using TR-FRET LANCE™ Assays: Prostanoid DP1
The potency of the compounds were determined using a LANCE™ cAMP assay kit as per the kit instructions. Briefly, CHO cells expressing DP1 receptor were thawed at 37° C., diluted in PBS and centrifuged at 1000 RPM for 5 minutes. Cells were then re-suspended (2 million cells/mL) in stimulation buffer (HBSS containing 0.01% BSA, 500 μM FAC IBMX, 5 mmol/L HEPES adjusted to pH 7.4 with KOH.
Briefly, cells were added (10,000 cells/well at 5 μL addition) to low volume white Greiner polypropylene 384-well plate assay plates containing 0.1 μl test compound. Following a 15 minute incubation at room temperature, 5 μl of antibody solution (stimulation buffer containing Alexia fluor 647) containing PGD2 at twice the determined EC80 concentration was added. Plates were incubated for a further 30 minutes at room temperature then detection mixture was added (kit components; detection buffer, europiumW8044-labelled streptavidin and biotin cAMP at 10 μl/well). Plates were covered and incubated the room temperature for 1 hour before reading on a Viewlux Microplate Imager using TR-FRET label settings.
All compounds were dissolved in DMSO at a concentration of 10 mM and were prepared in 100% DMSO using a 1 in 4 dilution step to provide 11-point concentration—response curves. The dilutions were transferred to the assay plates ensuring that the DMSO concentration was constant across the plate at 1% for all assays.
All data were normalised to the mean of 16 high and 16 low control wells on each plate. A four parameter curve fit of the following form was then applied.
Where a is the minimum, b is the Hill slope, c is the XC50, and d is the maximum. Data are presented as the mean pXC50 (negative log 10 of the molar XC50) with the standard deviation (SD) of number of tests in the experiments.

Q: Which “early and late nasal responses” value (allergic rhinitis model) does the source give for `CC1(C)[C@H]2C[C@H](C/C=C\CCCC(=O)O)[C@@H](NC(=O)c3csc4ccc(O)cc34)[C@@H]1C2` [Example S-5751] here?
A: Its value is “inhibited”.

Q: And the “antigen-induced eosinophil infiltration into the lung” value (asthma model)?
A: The value was “alleviated”.

Q: For `CC(C)c1nc2c(n1Cc1ccc(Cl)c(Cl)c1)C(CC(=O)O)CC2` (stereo not drawn) [Example 9, [3-[(3,4-dichlorophenyl)methyl]-2-(1-methylethyl)-3,4,5,6-tetrahydrocyclopenta[d]imidazol-4-yl]acetic acid ammonia salt], which Ki (Prostanoid DP1 receptor) is on record?
A: The Ki was no more than 10 nM.

Q: Which Ki (Prostanoid DP1 receptor) does the source give for `CC(C)c1nc2c(n1Cc1ccc(Cl)c(Cl)c1)C(CC(=O)O)CC2` (single isomer, unassigned; isomer 2) [Example 11, [3-[(3,4-dichlorophenyl)methyl]-2-(1-methylethyl)-3,4,5,6-tetrahydrocyclopenta[d]imidazol-4-yl]acetic acid ammonia salt (Isomer 2)] here?
A: Its Ki is no more than 100 nM.

Q: Which Ki (Prostanoid DP1 receptor) does the source give for `O=C(O)CC1CCCc2nc(C3CCCC3)n(Cc3ccc(Cl)cc3)c21` (stereo not drawn) [Example 22, {1-[(4-chlorophenyl)methyl]-2-cyclopentyl-4,5,6,7-tetrahydro-1H-benzimidazol-7-yl}acetic acid ammonia salt] here?
A: Its Ki is no more than 100 nM.

Q: Which Ki (Prostanoid DP1 receptor) does the source give for `CC(C)c1nc2c(n1Cc1ccc(Cl)c(Cl)c1)C(OCC(=O)O)CCCC2` (stereo not drawn) [Example 34, {[3-[(3,4-dichlorophenyl)methyl]-2-(1-methylethyl)-3,4,5,6,7,8-hexahydrocyclohepta[d]imidazol-4-yl]oxy}acetic acid ammonia salt] here?
A: Its Ki is no more than 10 nM.
